Results reported in the NIST ThermoML archive (doi:10.1016/j.fluid.2013.08.005).

Assay: mn = molality of the nth substance listed, in mol/kg
Settings: 298.15 K, 101 kPa, Liquid; for electrical conductivity: Alternating current cell with electrodes; for mass density: Vibrating tube method

CCCCCC[N+](C)(C)C.[Br-] [hexyltrimethylammonium bromide] + O
Settings | electrical conductivity [S/m] | mass density [kg/m3]
m1 = 0.02501 | 0.446 | 997.79
m1 = 0.05001 | 0.641 | 998.57
m1 = 0.07505 | 0.99 | 999.34
m1 = 0.125 | 1.02 | 1000.88
m1 = 0.13 | 1.15 | 1001.05
m1 = 0.15 | 1.3 | 1001.64
m1 = 0.1751 | 1.72 | 1002.41
m1 = 0.25 | 1.85 | 1004.69
m1 = 0.2751 | 2.08 | 1005.39
m1 = 0.3251 | 2.2 | 1006.85
m1 = 0.3501 | 2.41 | 1007.63
m1 = 0.4001 | 2.51 | 1009.06
m1 = 0.425 | 2.79 | 1009.77
m1 = 0.5001 | 3.53 | 1011.89
m1 = 0.7503 | 3.83 | 1018.71
m1 = 0.8791 | 4.07 | 1021.99
m1 = 1 | 0.239 | 1025.02
m1 = 1.501 | – | 1036.33
m1 = 2.001 | – | 1046
